Measured values taken from patent US9895338B1, “Cobalt-polypyridyl complex for treatment of cancer, a pharmaceutical composition and a kit comprising it” (Macau University of Science and Technology, priority 2016, dated 2018).

What was measured:
[1] = tested on: H1299 (lung cancer); assay: MTT cytotoxicity assay, H1299; format: cell-based, human; conditions: 72 h
Method: (§1) All prepared cobalt-polypyridyl complexes were dissolved in DMSO at a final concentration of 50 mmol/L and stored at −20° C. before use. Cytotoxicity was assessed by using the 3-(4,5-dimethylthiazol-2-yl)-2,5-diphenyltetrazolium bromide (MTT) (5.0 mg/ml) assay as previously described (Wong, V. K. et al., Cell Death Dis, 2013, 4, e720). Briefly, 4×10^3 cells per well were seeded in 96-well plates before drug treatments. After overnight culture, the cells were then exposed to different concentrations of selected compounds (0.039-100 μmol/L) for 72 h. Cells without drug treatment were used as control. Subsequently, MTT (10 μL) solution was added to each well and incubated at 37° C. for 4 h followed by the addition of 100 μL solubilization buffer (10% SDS in 0.01 mol/L HCl) and overnight incubation. A570 nm was then determined in each well on the next day. The percentage of cell viability was calculated using the following formula: Cell viability (%)=Atreated/Acontrol×100. Data were obtained from three independent experiments. Cells include HeLa cells (cervical cancer), MCF-7 (breast cancer), H1299, H1975, A549 and LLC-1 (lung cancer), HepG2 and Hep3B (liver cancer) and LO2 (normal human hepatocytes).

[2] = tested on: LLC-1 (lung cancer); assay: MTT cytotoxicity assay, LLC-1; format: cell-based; conditions: LLC-1, MTT, 72 h
Method: as §1

[3] = tested on: Taxol-resistant MCF-7 cancer cells; assay: MTT cytotoxicity, taxol-resistant MCF-7; format: cell-based
Method: as §1, with “experiments.” for “experiments. Cells include HeLa cells (cervical cancer), MCF-7 (breast cancer), H1299, H1975, A549 and LLC-1 (lung cancer), HepG2 and Hep3B (liver cancer) and LO2 (normal human hepatocytes).”
(§2) All cells were obtained from the American Type Culture Collection (Rockville, Md., USA) unless otherwise specified. Immortalized wild-type and Atg7-deficient mouse embryonic fibroblasts (MEFs) were provided by Professor Masaaki Komatsu (Juntendo University, School of Medicine, Japan). Taxol-resistant types of A549, MCF-7, HCT-8 cancer cells, cisplatin-resistant SGC7901 cancer cells were purchased from KeyGEN BioTECH, China.

[4] = tested on: Taxol-sensitive HCT8 cancer cells; assay: MTT cytotoxicity, taxol-sensitive HCT8; format: cell-based; conditions: 72 h
Method: as §1, with “experiments.” for “experiments. Cells include HeLa cells (cervical cancer), MCF-7 (breast cancer), H1299, H1975, A549 and LLC-1 (lung cancer), HepG2 and Hep3B (liver cancer) and LO2 (normal human hepatocytes).”

[5] = tested on: Taxol-resistant A549 cancer cells; assay: MTT cytotoxicity, taxol-resistant A549; format: cell-based
Method: as §1, with “experiments.” for “experiments. Cells include HeLa cells (cervical cancer), MCF-7 (breast cancer), H1299, H1975, A549 and LLC-1 (lung cancer), HepG2 and Hep3B (liver cancer) and LO2 (normal human hepatocytes).”
as §2

[6] = tested on: cisplatin-sensitive A2780 ovarian cancer cells; assay: MTT cytotoxicity, cisplatin-sensitive A2780; format: cell-based; conditions: 72 h
Method: as §1, with “experiments.” for “experiments. Cells include HeLa cells (cervical cancer), MCF-7 (breast cancer), H1299, H1975, A549 and LLC-1 (lung cancer), HepG2 and Hep3B (liver cancer) and LO2 (normal human hepatocytes).”
(§3) Cisplatin-sensitive or -resistant A2780, OV2008 and C13 cancer cells were provided by Prof. Benjamin Tsang (Department of Obstetrics and Gynecology and Department of Cellular and Molecular Medicine, University of Ottawa, Canada). HCT116 p53^+/+ and p53^−/− isogenic human colon cancer cells were provided by Professor Bert Vogelstein (Ludwig Center at Johns Hopkins, Howard Hughes Medical Institute, USA). All media were supplemented with 10% fetal bovine serum and the antibiotics penicillin (50 U/ml) and streptomycin (50 μg/ml; Invitrogen, Paisley, Scotland, UK). All cell cultures were incubated at 37° C. in a 5% humidified CO2 incubator.

[7] = tested on: OV2008 cervical cancer cells; assay: MTT cytotoxicity, OV2008 (cisplatin-sensitive); format: cell-based; conditions: 72 h
Method: as §1, with “experiments.” for “experiments. Cells include HeLa cells (cervical cancer), MCF-7 (breast cancer), H1299, H1975, A549 and LLC-1 (lung cancer), HepG2 and Hep3B (liver cancer) and LO2 (normal human hepatocytes).”
as §3

[8] = tested on: OV2008/C13 cervical cancer cells; assay: MTT cytotoxicity, OV2008/C13 (cisplatin-resistant); format: cell-based
Method: as §1, with “experiments.” for “experiments. Cells include HeLa cells (cervical cancer), MCF-7 (breast cancer), H1299, H1975, A549 and LLC-1 (lung cancer), HepG2 and Hep3B (liver cancer) and LO2 (normal human hepatocytes).”
as §3

[9] = tested on: HCT116 p53^+/+ colon cancer cells; assay: MTT cytotoxicity, HCT116 p53+/+; format: cell-based, human; conditions: 72 h
Method: as §1, with “experiments.” for “experiments. Cells include HeLa cells (cervical cancer), MCF-7 (breast cancer), H1299, H1975, A549 and LLC-1 (lung cancer), HepG2 and Hep3B (liver cancer) and LO2 (normal human hepatocytes).”
as §3

[10] = tested on: HCT116 p53^−/− colon cancer cells; assay: MTT cytotoxicity, HCT116 p53-/-; format: cell-based, human
Method: as §1, with “experiments.” for “experiments. Cells include HeLa cells (cervical cancer), MCF-7 (breast cancer), H1299, H1975, A549 and LLC-1 (lung cancer), HepG2 and Hep3B (liver cancer) and LO2 (normal human hepatocytes).”
as §3

[11] = Body weight in mouse lung cancer xenograft model; format: in vivo; conditions: IP 40 mg/kg/day, tumor-bearing mice
Excerpt: The mice were maintained under specific pathogen-free condition in a 12-h light-dark cycle. Experimental conditions were followed in accordance to the “Institutional AnimalCare and User Committee guidelines” of the Macau University of Science and Technology. Xenograft mouse model was constructed as previously described (Wong, V. K. et al., Oncotarget, 2016, 7, 9907-9924). LLC-1 Lewis lung cancer cells (1×10^6 cells) were subcutaneously injected in the right dorsal region of the mice. After tumors grew to about 100 mm^3, the mice were randomly divided into 3 groups: 1) the control group, 2) 40 mg/kg cobalt-polypyridyl complex of Formula (IV) group, and 3) 40 mg/kg cobalt-polypyridyl complex of Formula (IV) as chloride, also referenced as (IV)-Cl (water soluble form) group. The cobalt-polypyridyl complex of Formula (IV) was dissolved in 100 μL buffer (PEG400:EtOH:ddH2O=6:1:3), whereas (IV)-Cl (water soluble form) was dissolved in ddH2O. The complexes were then intraperitoneal injected in mice every day. The body weight of each mouse was recorded with the tumor volume determined by Vernier caliper using the formula of L×W^2×0.52, where L is the longest diameter of tumor and W is the shortest diameter of tumor. Mice with tumor implants were sacrificed after 10 days when the tumor size of vehicle control group reached above 1000 mm^3 due to animal ethical issue.

[12] = tested on: endogenous LC3-II puncta formation in HeLa cancer cells; conditions: HeLa, 5, 10, 20 μM
Method: The detection of endogenous LC3 was conducted using immunofluorescence staining method as described below. HeLa cancer cells treated with the cobalt-polypyridyl complex of Formula (IV) (with PF6^− as counterion) on cover slips were fixed with 4% paraformaldehyde (Sigma) for 20 min at room temperature and then rinsed with PBS. Coverslips were immersed in methanol at room temperature for 2 min. After washing with PBS, the cells were then incubated with anti-LC3 (1:200) in TBST (100 mM TrisHCl, pH 7.5, 150 mM NaCl, 0.05% Tween 20 and 5% BSA) overnight at 4° C. […] The coverslips were then mounted with FluorSave™ mounting media (Calbiochem, San Diego, Calif., USA) for fluorescence imaging and localization of LC3 autophagosomes were captured under the API Delta Vision Live-cell Imaging System (Applied Precision Inc., GE Healthcare Company, Washington, USA). To quantify autophagy, guidelines of autophagy quantitation were followed (Klionsky, D. J. et al., Autophagy, 2016, 12, 1-222). The percentage of cells with autophagic induction was calculated by the number of the cells with increased formation of punctate LC3 fluorescence dots (≧10 dots/cell) over the total number of immunofluorescence-positive cells in the same field. A minimum of 1000 cells from randomly selected fields were scored.

For `Cc1ccnc(-c2cc(C)ccn2)c1.Cc1ccnc(-c2cc(C)ccn2)c1.Cc1ccnc(-c2cc(C)ccn2)c1.F[P-](F)(F)(F)(F)F.F[P-](F)(F)(F)(F)F.F[P-](F)(F)(F)(F)F.[Co+3]` [complex (IV), [Co^III(4,4′-Me2-Bpy)3.](PF6)3], the IC50 [1] was 2.84 µM, the IC50 [2] was 3.39 µM and the IC50 ([3]; MCF-7, MTT, 72 h) was 2.71 µM. For the same compound, the “Resistant Factor” value ([3]; MCF-7, IC50 taxol-resistant over IC50 taxol-sensitive) was 0.68, the IC50 [4] was 3.39 µM and the IC50 ([5]; A549, MTT, 72 h) was 2.85 µM. For the same compound, the “Resistant Factor” value ([5]; A549, IC50 taxol-resistant over IC50 taxol-sensitive) was 0.25, the IC50 [6] was 12.3 µM and the IC50 [7] was 7.62 µM. For the same compound, the IC50 ([8]; OV2008/C13, MTT, 72 h) was 7.59 µM, the “Resistant Factor” value ([8]; OV2008/C13 over OV2008) was 1.0 and the IC50 [9] was 15.4 µM. The “Resistant Factor” value ([10]; HCT116 p53^−/− over HCT116 p53^+/+) was 0.59, the IC50 ([10]; MTT, 72 h) was 9.07 µM and the “reduction in body weight” value [11] was “no significant reduction in body weight”. For the same compound, the “endogenous LC3-II puncta formation (autophagy induction)” value [12] was “induce autophagy in dose-dependent manner”.
